Test results as given in patent US20260242359A1, “IRHOM2 INHIBITORS AND USES THEREOF” (NEW YORK SOCIETY FOR THE RELIEF OF THE RUPTURED AND …, priority 2023, published 2026).

Test system: PMA-induced release of endogenous HB-EGF from human peripheral blood mononuclear cells (PBMCs)
Assay: Example 16: ELISA-based HB-EGF release assay, PMA-induced, PBMCs from healthy donor
Format: cell-based
Details: 10 μM final concentration, PMA 25 ng/ml, delta Buffer stimulated vs unstimulated = 100% inhibition; for inhibition at 10 µM: Homo sapiens, PBMC
Method: In the following study, ELISA-based HB-EGF release assays were performed to analyze the inhibitory effects of Compounds 1, 2, 3, 4, 5, and 7 on PMA-induced release of endogenous HB-EGF from primary human material obtained from healthy donor using peripheral blood mononuclear cells (PBMCs). The ELISA-based HB-EGF release assay that was used in this example is described below.
In brief, on day 1, Nunc black MaxiSorp® 96-well plates (Thermo Fisher Scientific, USA) were coated overnight with 100 μl per well of mouse anti-human HB-EGF capture antibody (provided as part of the DuoSet ELISA kit) at 2 μg/ml TBS at 4° C.
80,000 PBMCs from healthy donor (SciRhom GmbH, Germany) in 80 μl of normal growth medium were seeded in each well of Greiner CELLSTAR V-bottom 96-well plates (Greiner Bio-One, Germany) and pre-incubated with […] per well of standard growth medium supplemented with Batimastat (BB94, Abcam, UK) at 50 μM as positive control (for a final concentration of 10 μM in the resulting 100 μl sample volume), compounds of the invention at 50 μM (for a final concentration of 10 μM in the resulting 100 μl sample volume) and in case of Buffer stimulated and unstimulated controls with DMSO (Carl Roth, Germany) at 50 μM (for a final concentration of 10 μM in the resulting 100 μl sample volume) at 37° C., 5% CO2 for 30 minutes. Subsequently, cells (except those for unstimulated controls) were stimulated with 20 μl per well of PMA (Sigma-Aldrich, USA) at 150 ng/ml in growth medium for a final concentration of 25 ng/ml at 37° C., 5% CO2 for 22 hours.
On day 2, the capture antibody solution was removed and MaxiSorp® plates were blocked with 300 μl per well of TBS, 1% BSA at room temperature for 1-2 hours. Meanwhile, the 96-well plates were centrifuged to pellet cells. In parallel, blocking buffer was removed from the MaxiSorp® plates and plates were washed 4 times with 350 μl TBS-T (Carl Roth, Germany) per well on a 96-head plate washer (Tecan Group, Switzerland). To avoid drying-up, 30 μl TBS were added to each well of the MaxiSorp® plates immediately, followed by the transfer of 70 μl cell-free supernatant per sample. Additionally, 100 μl recombinant human HB-EGF protein (provided as part of the DuoSet ELISA kit) diluted in TBS at defined concentrations were added to the plate as standard references. Plates were incubated at room temperature for 2 hours. After 4 times washing with 350 μl TBS-T (Carl Roth, Germany) per well on a 96-head plate washer (Tecan Group, Switzerland) and careful removal of all buffer traces after the fourth cycle, 100 μl biotinylated goat anti-human HB-EGF detection antibody (provided as part of the DuoSet ELISA kit) at 50 ng/ml TBS were added per well and, protected from direct light, plates were incubated at room temperature for 2 hours.
After 4 times washing with 350 μl TBS-T (Carl Roth, Germany) per well on a 96-head plate washer (Tecan Group, Switzerland) and careful removal of all buffer traces after the fourth cycle, 100 μl streptavidin-AP (R&D Systems, USA) diluted 1:10,000 in TBS were added to each well and, again protected from direct light, plates were incubated at room temperature for 30 minutes. Following another round of 4 times washing with 350 μl TBS-T (Carl Roth, Germany) per well on a 96-head plate washer (Tecan Group, Switzerland) and careful removal of all buffer traces after the fourth cycle, 100 μl AttoPhos substrate solution (Promega, USA) per well was added for incubation in the dark at room temperature for 1 hour. Using an infinite M1000 (Tecan Group, Switzerland) microplate reader, the fluorescence of each well was collected at an excitation wavelength of 435 nm and an emission wavelength of 555 nm.
The delta between Buffer stimulated and Buffer unstimulated was defined 100% inhibition.

| Structure (SMILES) | inhibition at 10 µM (22 h) [%] | inhibition at 10 µM (22 hours) [%] | inhibition of PMA-induced release of HB-EGF from PBMCs from healthy donor (22 hours) [%] |
| --- | --- | --- | --- |
| Cc1c(C(=O)NCc2cccs2)sc(=O)n1Cc1ccccc1F [Compound 5] | 34 | – | – |
| Cc1c(C(=O)NCc2cccs2)sc(=O)n1Cc1ccccc1 [Compound 4] | 38.7 | – | – |
| CCOC(=O)c1ccc(Nc2nc3nonc3n3nnnc23)cc1 [Compound 2] | 100 | – | – |
| Cc1c(C(=O)NCc2ccco2)sc(=O)n1Cc1ccccc1F [Compound 7] | 107 | – | – |
| CCC(=O)NCCc1c(/C=C2/C(=O)NC(=O)N(c3ccc(C)cc3C)C2=O)[nH]c2ccccc12 [Compound 1] | – | 101 | – |
| O=C(c1c(Cl)cccc1Cl)N1CCC(Cc2ccc(F)cc2)CC1 [Compound 3] | 22.4 | – | – |
| CNC(=O)[C@H](Cc1ccccc1)NC(=O)[C@H](CC(C)C)[C@H](CSc1cccs1)C(=O)NO [Batimastat, reference compound] | 98.5 | – | 107.6 |
